From patent publication US20240091328A1, “FORMULATIONS AND METHODS FOR MHC-I RESTRICTED EPITOPE IMMUNIZATION” (The Research Foundation for The State University of New York, priority 2021, published 2024)

system: IFN-γ; test: In vivo peptide micro-library screening, IFN-γ ELISA of re-stimulated splenocytes relative to A5; set-up: species or system mice; conditions: rank among 100 micro-library peptides; IFN-γ on re-stimulation relative to A5; 5 peptides plus A5 with CPQ
Description: Mice were immunized with 5 library peptides at a time, along with the A5 peptide, with all peptides combined and admixed with CPQ. After two intramuscular injections, splenocytes were collected, and then re-stimulated with each of the synthetic micro-library peptides, individually. Production of IFN-γ was measured and peptide immunogenicity was determined relative to the A5 peptide, which served as in internal control that could induce strong Ag-specific CD8^+ T cell responses.
For Ag screening, multivalent vaccine composed of peptide with the same MHC-I haplotypes (H-2L^d, H-2D^d, or H-2K^d) and the internal A5 peptide were admixed with CPQ. After immunization, only ˜10% of MHC-I binding peptides induced T cells in splenocytes that produced IFN-γ with peptide re-stimulation, and none were nearly as effective as A5 (FIG. 16B). The most highly immunogenic peptides only produced about a quarter of the level of IFN-γ relative to A5. […] It is also feasible that immunization with higher antigen doses of single individual peptides could have induced stronger immunogenic responses, although this would decrease the in vivo peptide micro-library screening throughput.
IFN-γ ELISA: 2.5×10^5 splenocytes were seeded in a 96 wells plate and stimulated with 10 μg/mL antigens for 72 hr. 50 μL of supernatant was collected from each well and subjected to Interferon gamma ELISA (Thermofisher; catalog: BMS606TEN) according to manufacturer protocol.

Substance | Experimental rank
H6-AYVNAIEKI-ERR (HHHHHHAYVNAIEKIERR; CT12) | 93
H6-AYVNATGEV-ERR (HHHHHHAYVNATGEVERR; CT13) | 95
H6-CQIAMVHYI-ERR (HHHHHHCQIAMVHYIERR; CT61) | 10
H6-CYVTYKGEI-ERR (HHHHHHCYVTYKGEIERR; CT9) | 89
H6-DPFATPLSM-ERR (HHHHHHDPFATPLSMERR; CT21) | 83
H6-DPQFAENYV-ERR (HHHHHHDPQFAENYVERR; CT94) | 55
H6-DSPNRRFTE-ERR (HHHHHHDSPNRRFTEERR; CT60) | 20
H6-EGPHGQPVS-ERR (HHHHHHEGPHGQPVSERR; CT54) | 57
H6-EPQIAMDDM-ERR (HHHHHHEPQIAMDDMERR; CT22) | 74
H6-EPQVEPLDF-ERR (HHHHHHEPQVEPLDFERR; CT15) | 81
H6-EYEKIEIPI-ERR (HHHHHHEYEKIEIPIERR; CT68) | 66
H6-FFMKMASKF-ERR (HHHHHHFFMKMASKFERR; CT73) | 78
H6-FPPQNMFEF-ERR [CT14] (HHHHHHFPPQNMFEFERR; CT14) | 98
H6-FPPQNMFEF-ERR [CT43] (HHHHHHFPPQNMFEFERR; CT43) | 15
H6-FPSESEFFK-ERR (HHHHHHFPSESEFFKERR; CT83) | 26
H6-FYTSYLRRL-ERR (HHHHHHFYTSYLRRLERR; CT74) | 76
H6-GFPSPLGGI-ERR (HHHHHHGFPSPLGGIERR; CT58) | 42
H6-GHVAAGGAL-ERR (HHHHHHGHVAAGGALERR; CT79) | 46
H6-GPPGGFQEF-ERR [CT4] (HHHHHHGPPGGFQEFERR; CT4) | 63
H6-GPPGGFQEF-ERR [CT99] (HHHHHHGPPGGFQEFERR; CT99) | 53
H6-GPPPHSAPC-ERR (HHHHHHGPPPHSAPCERR; H6 and ERR flanks; CT47) | 71
H6-GRPSIDNVL-ERR (HHHHHHGRPSIDNVLERR; CT51) | 37
H6-GYEAVVRLL-ERR (HHHHHHGYEAVVRLLERR; CT23) | 77
H6-HHTMMVQAI-ERR (HHHHHHHHTMMVQAIERR; CT24) | 86

Substance | Experimental rank
H6-HYLNDGDAI-ERR (HHHHHHHYLNDGDAIERR; H6 and ERR flanks; CT25) | 80
H6-IGQMLQTHF-ERR (HHHHHHIGQMLQTHFERR; CT84) | 49
H6-IPDEAMVKL-ERR (HHHHHHIPDEAMVKLERR; CT16) | 33
H6-IPIFHILNT-ERR (HHHHHHIPIFHILNTERR; CT85) | 8
H6-IYLESVAIM-ERR (HHHHHHIYLESVAIMERR; CT78) | 50
H6-IYSRTTDVL-ERR (HHHHHHIYSRTTDVLERR; CT76) | 64
H6-KGPKRDEQC-ERR (HHHHHHKGPKRDEQCERR; CT2) | 65
H6-KGPRNIQLD-ERR (HHHHHHKGPRNIQLDERR; CT57) | 48
H6-KGPYWLEVK-ERR (HHHHHHKGPYWLEVKERR; CT44) | 44
H6-KLLASALST-ERR (HHHHHHKLLASALSTERR; CT39*) | 5
H6-KPFTICKYY-ERR (HHHHHHKPFTICKYYERR; CT88) | 34
H6-KPYESYTEQ-ERR (HHHHHHKPYESYTEQERR; CT87) | 75
H6-KTPEL VEAL-ERR (HHHHHHKTPELVEALERR; CT36*) | 51
H6-KYFQAGKYE-ERR (HHHHHHKYFQAGKYEERR; CT69) | 21
H6-KYYAVNFSM-ERR [CT8] (HHHHHHKYYAVNFSMERR; CT8) | 88
H6-KYYAVNFSM-ERR [CT95] (HHHHHHKYYAVNFSMERR; CT95) | 59
H6-LFLKSPTAL-ERR (HHHHHHLFLKSPTALERR; CT34) | 99
H6-LFVTVLEVI-ERR (HHHHHHLFVTVLEVIERR; CT26) | 91
H6-LGYRYWTGI-ERR (HHHHHHLGYRYWTGIERR; CT92) | 41
H6-LLYNAVVWL-ERR (HHHHHHLLYNAVVWLERR; CT93) | 27
H6-LNYPHITNL-ERR (HHHHHHLNYPHITNLERR; CT81) | 54
H6-LVPNRFSRL-ERR (HHHHHHLVPNRFSRLERR; CT45) | 13
H6-LYLANLRHM-ERR (HHHHHHLYLANLRHMERR; CT64) | 14
H6-MLARKQFDL-ERR (HHHHHHMLARKQFDLERR; CT86) | 60

Substance | Experimental rank
H6-MPQLFMVSK-ERR (HHHHHHMPQLFMVSKERR; CT100) | 16
H6-NALSSMGAL-ERR (HHHHHHNALSSMGALERR; CT40*) | 6
H6-NPRAMQVLL-ERR (HHHHHHNPRAMQVLLERR; CT20) | 38
H6-PGGFQEFNF-ERR (HHHHHHPGGFQEFNFERR; CT89) | 25
H6-PGPIKCVPI-ERR (HHHHHHPGPIKCVPIERR; CT3) | 22
H6-PPQNMFEFP-ERR (HHHHHHPPQNMFEFPERR; CT82) | 67
H6-PTPRRFSPP-ERR (HHHHHHPTPRRFSPPERR; CT52) | 24
H6-PYFRLEHYL-ERR (HHHHHHPYFRLEHYLERR; CT27) | 87
H6-PYLTALDDL-ERR (HHHHHHPYLTALDDLERR; CT28) | 82
H6-QFPSESEFF-ERR (HHHHHHQFPSESEFFERR; CT5) | 18
H6-RGEYEDPYY-ERR (HHHHHHRGEYEDPYYERR; CT56) | 35
H6-RGGPKKCAL-ERR (HHHHHHRGGPKKCALERR; CT53) | 32
H6-RGPPPHSAP-ERR (HHHHHHRGPPPHSAPERR; H6 and ERR flanks; CT46) | 72
H6-RHNTMLKAM-ERR (HHHHHHRHNTMLKAMERR; CT66) | 61
H6-RKIKGPYWL-ERR (HHHHHHRKIKGPYWLERR; CT91) | 52
H6-RPIKGPRNI-ERR (HHHHHHRPIKGPRNIERR; CT18) | 47
H6-RTPHVLWSW-ERR (HHHHHHRTPHVLWSWERR; CT41) | 40
H6-RYWTGIGVL-ERR (HHHHHHRYWTGIGVLERR; CT11) | 92
H6-SEGNSSHTI-ERR (HHHHHHSEGNSSHTIERR; CT81) [CT80] | 31
H6-SFQPTADEL-ERR (HHHHHHSFQPTADELERR; CT62) | 11
H6-SGPIGPPEI-ERR (HHHHHHSGPIGPPEIERR; CT48) | 70
H6-SGPSYATYL-ERR (HHHHHHSGPSYATYLERR; CT1) | 62
H6-SPKALAHNG-ERR (HHHHHHSPKALAHNGERR; CT37*) | 1
H6-SPNRRFTEM-ERR (HHHHHHSPNRRFTEMERR; CT17) | 58

Substance | Experimental rank
H6-SRLQSLTLI-ERR (HHHHHHSRLQSLTLIERR; CT72) | 7
H6-SSKHRRSFV-ERR (HHHHHHSSKHRRSFVERR; CT38*) | 45
H6-SYATYLQPA-ERR (HHHHHHSYATYLQPAERR; CT63) | 19
H6-SYETLKKSL-ERR (HHHHHHSYETLKKSLERR; CT7) | 94
H6-SYIKKLKEL-ERR (HHHHHHSYIKKLKELERR; CT29) | 90
H6-SYIMAICGM-ERR [CT67] | 36
H6-SYLRRLPGL-ERR (HHHHHHSYLRRLPGLERR; CT35) | 100
H6-SYQAALAEN-ERR (HHHHHHSYQAALAENERR; CT77) | 39
H6-SYTEQNVKL-ERR (HHHHHHSYTEQNVKLERR; CT30) | 85
H6-SYTSYIMAI-ERR (HHHHHHSYTSYIMAIERR; CT10) | 69
H6-TALPVGFSL-ERR (HHHHHHTALPVGFSLERR; CT90) | 79
H6-TGPYVMMIG-ERR (HHHHHHTGPYVMMIGERR; CT6) | 84
H6-TGRRRTATK-ERR (HHHHHHTGRRRTATKERR; CT59) | 30
H6-TPHVLWSWG-ERR (HHHHHHTPHVLWSWGERR; CT97) | 4
H6-TPPSHKLPL-ERR (HHHHHHTPPSHKLPLERR; CT55) | 23
H6-TPPSIFSTQ-ERR (HHHHHHTPPSIFSTQERR; CT49) | 73
H6-TY AIALINV-ERR (HHHHHHTYAIALINVERR; CT70) | 29
H6-TYLQPAQAQ-ERR (HHHHHHTYLQPAQAQERR; CT75) | 12
H6-TYWKGNPEM-ERR (HHHHHHTYWKGNPEMERR; CT31) | 97
H6-VVEANWTML-ERR (HHHHHHVVEANWTMLERR; CT96) | 2
H6-VVLETFYDL-ERR (HHHHHHVVLETFYDLERR; CT19) | 56
H6-VYFTINVNL-ERR (HHHHHHVYFTINVNLERR; CT32) | 43
H6-VYFVAGVRV-ERR (HHHHHHVYFVAGVRVERR; H6 and ERR flanks; CT71) | 3
